# According to publication PMC6709486, “Safety, Tolerability, Pharmacokinetics, and Drug Interaction Potential of SPR741, an Intravenous Potentiator, after Single and Multiple Ascending Doses and When Combined with β-Lactam Antibiotics in Healthy Subjects” (Antimicrobial Agents and Chemotherapy, 2019):
# Peptide text beside a SMILES is read from it.
# Assay: MAD phase safety and tolerability
# Type: in vivo, human
# Excerpt: The SAD/MAD study was a phase 1, double-blind, placebo-controlled, multicohort trial. Part 1 used a SAD design according to which subjects received a single i.v. dose of SPR741. Part 2 used a MAD design in which subjects received multiple daily i.v. doses of SPR741 over a period of 14 days. The objective was to assess the safety/tolerability and PK of single and multiple ascending doses of SPR741.
# In the SAD phase, healthy volunteers were screened within 28 days prior to dosing. Subjects were admitted to the clinical facility on day −1 for up to 3 days. A single dose of SPR741 (or placebo) was administered on day 1. Following completion of all safety assessments and sampling for PK analyses, subjects were discharged on day 2. A follow-up visit occurred 5 to 7 days after day 1 dosing. In the MAD phase, all subjects were admitted to the clinical facility on day −1. Dosing commenced on the morning of day 1. Three doses were administered daily at approximately 8 (±0.5)-h intervals for a total of 14 consecutive days. The last dose was administered on the morning of day 14. Blood and urine samples were collected for assessment of PK parameters. Subjects were discharged on day 16 following completion of all PK sample collection and safety assessments, and a follow-up visit occurred 5 to 7 days after the last dose.
# The MAD phase of the study began after safety and tolerability were confirmed in cohort 5, and the appropriate dose level was established. Two subjects received placebo, and six subjects received SPR741 doses of 50, 150, 400 or 600 mg q8h for 14 days. In the first cohort of the MAD phase (50 mg q8h), two subjects (sentinels) began dosing with SPR741 or placebo 72 h prior to dosing of the remaining subjects in this cohort. The remaining six subjects were dosed only after no safety concerns were identified by the Safety Monitoring Group at 72 h. After each MAD dose cohort had completed administration of study drug and all evaluations, the Safety Monitoring Group reviewed blinded cumulative safety data (including the day 19 to 21 follow-up data) to confirm the safety and tolerability of study drug.
# For both studies, safety assessments included clinical laboratory testing (hematology, coagulation, serum chemistry, renal chemistry, and urinalysis), vital signs (blood pressure, heart rate, body temperature, and respiratory rate), physical examination, and triplicate 12-lead ECGs. […] Adverse events were recorded at each study visit.
compound,measurement,setting,value
"CC(=O)N[C@H](C(=O)N[C@H](CO)C(=O)N[C@H]1CCNC(=O)[C@H]([C@@H](C)O)NC(=O)[C@H](CCN)NC(=O)[C@H](CCN)NC(=O)[C@H](CC(C)C)NC(=O)[C@@H](Cc2ccccc2)NC(=O)[C@H](CCN)NC1=O)[C@@H](C)O [SPR741] (HELM PEPTIDE1{[ac].T.[dS].[Dab].[Dab].[dF].L.[Dab].[Dab].T}$PEPTIDE1,PEPTIDE1,4:R3-10:R2$$$V2.0)",deaths or severe TEAEs,MAD,No deaths or severe TEAEs occurred
same,Abdominal pain: No. (%) of subjects,in vivo,2 (8)
same,Abdominal pain: No. of events,in vivo,2
same,All systemic TEAEs: No. (%) of subjects,in vivo,24 (100)
same,All systemic TEAEs: No. of events,in vivo,178
same,Arthralgia: No. (%) of subjects,in vivo,2 (8)
same,Arthralgia: No. of events,in vivo,3
same,Back pain: No. (%) of subjects,in vivo,2 (8)
same,Back pain: No. of events,in vivo,2
same,Chest discomfort: No. (%) of subjects,in vivo,2 (8)
same,Chest discomfort: No. of events,in vivo,2
same,Contusion: No. (%) of subjects,in vivo,2 (8)
same,Contusion: No. of events,in vivo,2
same,CrCl on day 16,in vivo,65 mL/min
same,Creatinine clearance decrease: No. of events,in vivo,6
same,Dermatitis contact: No. of events,in vivo,7
same,Diarrhea: No. of events,in vivo,3
same,Dysesthesia: No. (%) of subjects,in vivo,2 (8)
same,Dysesthesia: No. of events,in vivo,2
same,Headache: No. of events,in vivo,8
same,Nausea: No. (%) of subjects,in vivo,2 (8)
same,Nausea: No. of events,in vivo,2
same,Rhinitis: No. (%) of subjects,in vivo,2 (8)
same,Rhinitis: No. of events,in vivo,2
same,catheter site erythema related to the PK cannula,in vivo,13%
same,catheter site pain related to the PK cannula,in vivo,25%
same,decline in CrCl,in vivo,50%
same,"infusion site phlebitis, SPR741 subjects",in vivo,3
same,"infusion site thrombosis, SPR741 subjects",in vivo,2
same,"serious AE of atrial fibrillation, probably related to treatment, withdrawn",in vivo,One subject
same,"infusion site reactions (site bruising, erythema, pain, phlebitis, swelling), total number","in vivo, iv",81
